From patent US20090081143A1, “Extracts From Black Yeast For Whitening Skin” (priority 2007, published 2009)

System: UV-B induced tan
Test: Whitening action: fading of UV-B induced tan on the backs of volunteers (Minolta Chromameter reflectance)
Type: in vivo, human
Conditions: FIG. 5; 1% extract or 2% kojic acid in Example 4 cream; 2 mg/cm^2 once a day; nine volunteers
Procedure: A comparative study is done to determine the whitening efficacy of an Exophiala mansonii-derived enzyme extract in comparison to the efficacy of a known tyrosinase inhibitor, kojic acid. More specifically, the study was designed to study the lightening effect of these materials (reduction in tanning) using the fading of UV-B induced tan as a marker. Two samples are prepared. The first sample contains the composition described in Example 4. The second sample has the same composition as that described in Example 4 except that 2% kojic acid is substituted for the 1% Exophiala mansonii enzyme extract. Nine volunteers participate in the study. The volunteer panelists are in normal health with no evidence of acute or chronic disease including dermatological problems. […] Tanning is observed for six days after irradiation at which point color measurements are made using a Minolta Chromameter which measures the difference in reflectance of the skin, L. The change in the value of the difference in reflectance, ΔL*, is measured against a baseline skin color value of untreated irradiated skin measured on day 6. […] The observed reflectance values for all the time points are recorded, and the area under the curve for each test site was calculated. The Whitening Factor is calculated as the area under the curve of the treated site subtracted from the untreated site, and is shown in FIG. 5.

In the case of `O=c1cc(CO)occ1O` [kojic acid], the “Whitening Factor (area under the curve of the treated site subtracted from the untreated site)” value is reported as 1.8.
